The results in this text go back to patent US9763939B2, “Compositions and methods for treating mitochondrial diseases” (BIOVISTA, INC., priority 2012, dated 2017).

As usually defined, the viability is a read-out of living cells in per cent, often relative to untreated cells. In general, Tmax refers to the time from dosing to the highest level. For orientation: LD50 means the dose expected to kill half of the subjects tested. Lower therefore signals a more toxic substance.

The test system of series [1] is human primary fibroblasts from patients suffering from LHON. Put plainly: cells. How it is done: EXAMPLE. […] Briefly, primary human fibroblasts from patients suffering from Friedreich's ataxia and LHON are lesioned with 100 μM BSO (LHON fibroblasts) or 250 μM BSO (FRDA fibroblasts) respectively, for 48 hours. Apoptosis, toxicity and viability rate of cells are determined using the ApoTox-Glo-Kit (Promega): the reagent for assessing viability and toxicity is applied 1:5 into treatment medium and incubated for 30 min at 37° C. Next, fluorescence is measured at the following wavelength sets: 400EX/505EM (viability) and 485EX/520EM (toxicity). In case of apoptosis measurement the caspase reagent was added 1:2 and incubated at RT for 30 min, the caspase activity (apoptosis) was measured as luminescence
EXAMPLE. Evaluation of Tetracyclic Pyrazinoindoles, and Pharmaceutically Acceptable Salts Thereof. One or more tetracyclic pyrazinoindoles are applied 2 and 24 hours before BSO treatment and are present throughout the assay. An optional reference compound, such as idebenone may be included for comparison. BSO treated cells without any treatment (BSO group) as well as cells neither treated with BSO nor with any treatment (Vehicle Control (VC) group) serve as controls. Cells are assessed for apoptosis, toxicity and viability immediately after BSO lesion by means of the ApoTox-Glo-assay Kit (Promega). Three independent experiments in four technical replicates are performed for all groups as depicted in Table 1 (different tetracyclic pyrazinoindoles are labeled as Test Items (T.I.1-T.I.2) and an optional positive control Reference Item 1 (R.I.1)):
BSO generally reduces a cell's protection against oxidative damage. Cells harvested from FRDA and LHON patients generate higher levels of ROS than normal cells. Apoptosis, toxicity and viability rate of cells are determined using the ApoTox-Glo-Kit (Promega): the reagent for assessing viability and toxicity is applied 1:5 into treatment medium and incubated for 30 min at 37° C. Next, fluorescence is measured at the following wavelength sets: 400EX/505EM (viability) and 485EX/520EM (toxicity). In case of apoptosis measurement the caspase reagent is added 1:2 and incubated at RT for 30 min, the caspase activity (apoptosis) was measured as luminescence
Descriptive statistical analysis was performed. Data are presented as mean±standard error of mean (SEM) in percent of vehicle control, MPP+ lesion and BSO lesion, respectively. Differences between compound-treated groups and controls (vehicle, BSO) are evaluated by means of One-Way ANOVA.
EXAMPLE. […] One vial is thawed and administered 2 and 24 hours before BSO treatment, at concentrations 0.6 μM, 1.8 μM, 5.5 μM and 16 μM. Apoptosis, toxicity and viability rate of cells are determined using the ApoTox-Glo-Kit (Promega). Human primary fibroblasts from patients suffering from LHON are used. Three independent experiments in four technical replicates are performed for all groups. […] Statistical significance is indicated by NS=not significant p>0.1, *=p<0.05, **=p<0.01, ***=p<0.001 as determined by One-Way ANOVA. Data are shown as group mean+/−SEM.
EXAMPLE. Tetrindole is diluted in DMSO. One vial is thawed and administered 2 and 24 hours before BSO treatment, at concentrations 0.2 μM, 0.6 μM, 1.8 μM and 5.5 μM. Apoptosis, toxicity and viability rate of cells are determined using the ApoTox-Glo-Kit (Promega). Human primary fibroblasts from patients suffering from LHON are used. Three independent experiments in four technical replicates are performed for all groups. […] Statistical significance is indicated by NS=not significant p>0.1, *=p<0.05, **=p<0.01, ***=p<0.001 as determined by One-Way ANOVA. Data are shown as group mean+/−SEM.

Series [2] deals with YG8R FRDA mouse fibroblasts. Briefly: FAC/BSO oxidative stress insult, cell viability (Presto Blue), YG8R fibroblasts. The conditions noted are these: FAC and 1 mM BSO 48 h. The class given is cell-based. How it is done:
(§1) EXAMPLE. Primary fibroblast and neuronal stem cell (NSC) cultures from the YG8R FRDA mouse model. The cell cultures are used as a rapid means to test the effectiveness of potential therapies before proceeding to longer-term FRDA mouse model investigations. A parallel assay using YG22R NSCs may be used.
(§2) YG8R fibroblasts and NSCs are treated with increasing concentrations of test compound, and a vehicle-only negative control. Optionally, YG8R fibroblasts and NSCs are treated with a positive control compound, such as 1 μM idebenone. Two hours after the initial treatment, cells are lesioned with […] FAC and 1 mM BSO for 48 hours. Cell viability is then determined using Presto Blue Cell Viability Reagent (Life Technologies) for 24 hours and subsequent colorimetric spectrophotometry. […] Similarly, 1.8 μM tetrindole restored the vehicle-treated FAC/BSO cell viability value of 26% to a value of 53% (p<0.001), relative to the vehicle treated non-insulted cell value as 100%.

In series [3] the test system is YG8R FRDA mouse neuronal stem cells (NSCs). Briefly: FAC/BSO oxidative stress insult, cell viability (Presto Blue), YG8R NSCs. The class given is cell-based. How it is done:
as §1, §2
Similarly, 1.8 μM tetrindole restored the vehicle-treated FAC/BSO cell viability value of 19% to a value of 40% (p<0.001), relative to the vehicle treated non-insulted cell value as 100%.

Series [4] has as its system reuptake of 5-hydroxytryptamine. Put plainly: Effect on reuptake of 5-hydroxytryptamine.
Series [5] in a line: Pharmacokinetics and distribution in the rat. The class given is in vivo.
Series [6] concerns mice. Conditions: mouse, in vivo, po.
The nature of series [7]: in vivo. Conditions: mouse.
[8] abbreviates: rats, after oral and i.p. administration.

On to `Cc1ccc2c(c1)c1c3n2CCNC3CCC1` (centres unmarked) [pirlindole, 2,3,3a,4,5,6-hexahydro-8-methyl-1H-pyrazino[3,2,1-j,k]carbazole], for which the “statistically significant overall cytotoxicity over BSO control” value in series [1] is listed as “not observed at any dose”. Moreover, the “apoptosis (caspase activity)” value in series [1] (16 μM, only significant after 24 h) is “reduced”. Besides, the “apoptosis compared to the BSO group” value in series [1] (5.5 dose) was “Statistically significant inferior apoptosis”. Besides, the “concentrations with protective effect or protective trend on cell viability” value in series [1] (BSO lesion, pirlindole at both time points, tetrindole dose dependent protective trend) was 16 µM. The viability at 16 µM in series [1] (Homo sapiens, Fibroblast, 48 h, read-out: protective effect in relative cell viability) amounted to 122%; in series [2] (Mus musculus, Fibroblast, 16 μM, vehicle-treated FAC/BSO value 26%, relative to vehicle treated non-insulted cells as 100%, p<0.001) it was 67%. Besides, the “protection against the oxidative stress insult” value in series [2] and in series [3] was “significantly protect” throughout. Besides, the viability at 5.5 µM in series [3] (Mus musculus, 5.5 μM, vehicle-treated FAC/BSO value 19%, relative to vehicle treated non-insulted cells as 100%, p<0.001) amounted to 41%. Moreover, the “effect on the reuptake of 5-hydroxytryptamine” value in series [4] is recorded as “inhibitory effect”. The values for the fraction eliminated in series [5] (after 48 h) and in series [5] (within 24 h) were 80-85% and 40-60%, respectively. The Tmax in series [5] (in vivo, rat, oral, approximately) lay within 2 to 6 h. Also, the “second phase of elimination” value in series [5] (rat) lay in the range of 35 to 70 h. Also, the “first phase of elimination” value in series [5] (rat, approximately) is on record as “approximately 8 h”. Besides, the “blood brain barrier (BBB) penetration” value in series [5] (setting [8]) is “good blood brain barrier (BBB) penetration”. In addition, the tissue distribution result in series [5] (setting [8]) was “distributed in the lungs, liver, kidneys, spleen and various glands (but only transiently in bone marrow)”. Besides, in series [6], the maximal non-lethal dose entry is given as “approximately 300 mg/kg”. The results for the LD50 in series [7] (iv) and in series [7] (po) were 70 to 80 mg/kg and 400 to 1000 mg/kg, respectively.
